Source: ChEMBL document CHEMBL4373747 (ACS Med Chem Lett, 2020)

What was measured:
[1] = Stability in CD-1 mouse hepatocytes assessed as compound remaining at 1 uM measured up to 6 hrs by LCMS analysis; assay type: ADME, cell-based, Hepatocyte; settings: mouse, 6 h, 1 µM
[2] = target: T1, Protein deacetylase HDAC6 (Homo sapiens) (UniProt Q9UBN7); experiment: (§1) Inhibition of HDAC6 in human HeLa cells incubated for 15 mins by ELISA; assay type: cell-based
T1 sequence (whole entry): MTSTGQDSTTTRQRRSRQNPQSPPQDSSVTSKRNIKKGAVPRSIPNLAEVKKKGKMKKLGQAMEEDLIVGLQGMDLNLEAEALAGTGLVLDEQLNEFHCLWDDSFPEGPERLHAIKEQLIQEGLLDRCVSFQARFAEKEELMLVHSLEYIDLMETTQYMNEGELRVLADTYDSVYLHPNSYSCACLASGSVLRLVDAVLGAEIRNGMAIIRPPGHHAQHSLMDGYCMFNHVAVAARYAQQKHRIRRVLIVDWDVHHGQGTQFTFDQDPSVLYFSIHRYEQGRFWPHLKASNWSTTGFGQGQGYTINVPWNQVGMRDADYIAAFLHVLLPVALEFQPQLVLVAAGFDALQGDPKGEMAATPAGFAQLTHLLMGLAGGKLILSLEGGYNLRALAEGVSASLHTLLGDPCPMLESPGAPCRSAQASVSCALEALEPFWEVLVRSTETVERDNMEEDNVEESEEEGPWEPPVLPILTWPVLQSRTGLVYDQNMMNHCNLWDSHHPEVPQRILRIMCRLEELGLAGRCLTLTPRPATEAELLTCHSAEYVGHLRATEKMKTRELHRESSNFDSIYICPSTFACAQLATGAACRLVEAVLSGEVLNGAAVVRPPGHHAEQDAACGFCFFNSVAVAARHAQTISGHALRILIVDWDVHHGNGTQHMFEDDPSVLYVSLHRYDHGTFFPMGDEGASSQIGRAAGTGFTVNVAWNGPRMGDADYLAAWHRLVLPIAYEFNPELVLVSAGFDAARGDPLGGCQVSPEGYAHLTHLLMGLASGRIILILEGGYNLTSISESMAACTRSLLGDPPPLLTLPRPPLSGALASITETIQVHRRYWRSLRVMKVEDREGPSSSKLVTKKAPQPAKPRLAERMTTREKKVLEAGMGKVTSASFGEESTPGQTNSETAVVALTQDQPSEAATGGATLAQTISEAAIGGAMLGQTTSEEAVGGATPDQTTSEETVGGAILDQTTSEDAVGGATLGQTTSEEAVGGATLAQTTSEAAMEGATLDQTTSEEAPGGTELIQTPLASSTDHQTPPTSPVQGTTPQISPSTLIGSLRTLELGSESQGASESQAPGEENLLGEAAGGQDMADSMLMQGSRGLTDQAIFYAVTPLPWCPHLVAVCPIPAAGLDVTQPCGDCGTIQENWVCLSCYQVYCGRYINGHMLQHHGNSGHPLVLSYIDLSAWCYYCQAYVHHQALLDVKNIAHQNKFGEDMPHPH

[3] = target: T2, Protein deacetylase HDAC6 (Homo sapiens, UniProt Q9UBN7); experiment: as §1; assay type: cell-based
T2 sequence (Q9UBN7 whole entry): T1 sequence (whole entry)

[4] = target: T2, Protein deacetylase HDAC6; experiment: Inhibition of recombinant full length human HDAC6 expressed in baculovirus infected Sf9 cells using FAM-RHKK-Ac as substrate incubated for 5 hrs by electrophoretic mobility shift assay
MV4-11 [5] = experiment: Induction of apoptosis in human MV4-11 cells assessed as viable cells at 2 uM incubated for 18 hrs by annexin V FITC and PI based flow cytometry (reference value: 53.01 to 53.07 %); assay type: functional; settings: Homo sapiens, MV4-11, 18 h; read-out: Activity
MOLM-13 = experiment: Cytotoxicity against human MOLM13 cells assessed as reduction in cell viability incubated for 72 hrs by cell-titer blue assay; assay type: functional, cell-based; settings: MOLM-13, 72 h
MV4-11 [6] = experiment: Induction of apoptosis in human MV4-11 cells assessed as early apoptotic cells at 0.25 uM incubated for 18 hrs by annexin V FITC and PI based flow cytometry (reference value: 19.46 to 22.17 %); assay type: functional
Histone deacetylase 9 = Histone deacetylase 9 (Homo sapiens, UniProt Q9UKV0); experiment: Inhibition of recombinant human HDAC9 (604-1066 residues) expressed in baculovirus infected Sf9 cells using FAM-RHKK-TFAc as substrate incubated for 3 hrs by electrophoretic mobility shift assay
[7] = Cmax in NSG mouse; assay type: ADME; settings: in vivo

Histone deacetylase 9, sequence (Q9UKV0 whole entry, the tested form may be a part): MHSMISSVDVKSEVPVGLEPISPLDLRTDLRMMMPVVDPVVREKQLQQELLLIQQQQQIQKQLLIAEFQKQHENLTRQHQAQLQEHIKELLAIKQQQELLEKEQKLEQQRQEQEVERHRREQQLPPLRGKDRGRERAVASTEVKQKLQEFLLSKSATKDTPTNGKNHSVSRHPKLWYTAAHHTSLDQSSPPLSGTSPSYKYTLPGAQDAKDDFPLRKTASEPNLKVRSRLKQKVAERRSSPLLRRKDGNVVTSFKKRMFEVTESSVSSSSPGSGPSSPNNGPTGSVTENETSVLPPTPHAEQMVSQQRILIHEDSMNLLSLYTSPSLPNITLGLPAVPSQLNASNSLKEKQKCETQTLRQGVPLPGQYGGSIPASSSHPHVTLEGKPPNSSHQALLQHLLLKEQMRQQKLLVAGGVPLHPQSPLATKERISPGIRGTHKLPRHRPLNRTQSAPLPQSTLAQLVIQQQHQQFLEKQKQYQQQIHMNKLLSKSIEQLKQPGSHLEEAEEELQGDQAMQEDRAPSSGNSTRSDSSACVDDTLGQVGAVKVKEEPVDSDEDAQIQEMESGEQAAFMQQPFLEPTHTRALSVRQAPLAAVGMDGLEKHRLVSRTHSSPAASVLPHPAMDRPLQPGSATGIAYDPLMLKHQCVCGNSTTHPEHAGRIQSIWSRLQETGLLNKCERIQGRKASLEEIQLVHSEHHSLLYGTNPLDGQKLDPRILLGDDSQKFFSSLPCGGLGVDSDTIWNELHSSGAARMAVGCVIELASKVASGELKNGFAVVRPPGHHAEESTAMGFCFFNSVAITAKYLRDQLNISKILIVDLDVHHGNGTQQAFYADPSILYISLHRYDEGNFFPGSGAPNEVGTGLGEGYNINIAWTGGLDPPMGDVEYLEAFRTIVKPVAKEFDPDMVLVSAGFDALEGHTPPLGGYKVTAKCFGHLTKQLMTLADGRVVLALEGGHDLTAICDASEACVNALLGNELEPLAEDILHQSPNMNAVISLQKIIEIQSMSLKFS

Stability [1]: 20% | inhibition [2]: Dose-dependent effect | IC50 [3]: 0.58 µM | IC50 [4]: 0.0244 µM | IC50 (Histone deacetylase 9): > 1 µM | Cmax [7]: 10.7 µM
SMILES: CC(C)(C)c1ccc(C(=O)Nc2ccc(C(=O)NO)cc2)cc1
viability at 2 µM (MV4-11 [5]): 22.1% | IC50 (MOLM-13): 6 µM | Activity (MV4-11 [6]): 17.82%
